Results from paper PMC6839601, “Discovery of selective, antimetastatic and anti-cancer stem cell metallohelices via post-assembly modification” (Chemical Science, 2019).

Tests used:
HCT116 p53+/+ cells = experiment: Inhibition of HCT116 colonosphere formation; assay type: cell-based, human; conditions: IC30 for 72 h, then 6 days
Procedure: Cells were treated with drug (IC30 concentration) for 72 h, washed, harvested with StemPro Accutase, and plated in ultra-low attachment 96-well culture plates (300 cells per well). Cells were cultured in for 6 days without disturbing the plates or replenishing the medium and the number/size of spheres were determined using an inverted microscope.
10. Anti-cancer stem cell study
10.1 Inhibition of HCT116 colonsphere formation
HCT116 p53+/+ (adherent) cells were treated with  Δ-[Fe 2L13]Cl4,  Δ-[Fe 2L3a3]Cl4 and
salinomycin (at their IC30 values) for 72 h. Cells were then washed with PBS, harvested by
StemProAccutase (Gibco) and plated in ultralow-attachment 96w culture plates (Corning)
(300cells per well). Cells were cultured in DMEM/F12 supplemented with B27 (-vitA, Gibco,
ngmL-1 FGF2 (Sigma, F0291) for 6 days without disturbing the plates and without replenishing
(§1) the medium. The number and size of spheres were determined using an inverted microscope.
Supplementary Table 3. Quantification of colonospheres formation in HCT116 p53+/+ cells untreated or treated […]
aThe results are expressed as mean ± SD of three independent experiments.
Supplementary Figure 27. Quantification of colonosphere formation in HCT116 p53+/+ colonospheres untreated
or treated with the investigated compounds at their respective IC30 values for 72 h. The results are expressed as […]

HCT116.CD133+ cells = experiment: Inhibition of HCT116.CD133+ colonosphere formation; assay type: cell-based, human; conditions: IC30 values for 6 days
Procedure: (§2) Supplementary Figure 28. Representative images of the HCT116 p53 +/+ colonospheres untreated or treated
(§3) with the investigated compounds at their respective IC 30 values for 72 h. Scale bars: 100 µm.
(§4) colonosphere formation similarly or more effectively than  Δ-[Fe 2L13]Cl4 and salinomycin, a
(§5) well-established CSC-potent agent.
(§6) 10.2 Separation of HCT116.CD133 + and HCT116.CDD133 - cells by magnetically
(§7) activated cell sorting (MACS)
(§8) Positive selection with a single marker of CD133/1 (AC133) was used to enrich for CSCs. The
(§9) cells were harvested by non-enzymatic Cell Stripper (Corning), prepared into single cell
(§10) suspension (30 µm strainer) and counted. Approx. 2×10^7 cells were obtained for cell sorting.
(§11) For a selection of CD133 single positive cells, the cells were stained with the APC-conjugated
(§12) incubated for 20 min at 4-8 °C. The cells were washed with buffer (PBS, 0.5% BSA, pH 7.2;
(§13) prepared by diluting MACS BSA Stock Solution (130-091-376) 1:20 with auto MACS Rinsing
(§14) Solution (130-091-222)) and incubated with Anti-APC Micro Bead (Miltenyi Biotec, 130-090- […]
(§15) three-times in Buffer and analyzed on BD FACSVerse flow cytometer (San Jose, CA, USA);
(§16) the data were analyzed using BD FACSSuite software.
(§17) Supplementary Figure 29. Representative histograms displaying the red fluorescence emitted by anti-CD133- […]
as §1

HCT116.CD133- cells = experiment: Inhibition of HCT116.CD133- colonosphere formation; assay type: cell-based, human; conditions: IC30 values for 6 days
Procedure: as §2, §3, §4, §5, §6, §7, §8, §9, §10, §11, §12, §13, §14, §15, §16, §17, §1

[1] = system: CSC enriched HCT116.CD133+ cells; experiment: Cytotoxicity in HCT116.CD133+ cells, SRB assay; assay type: cell-based; conditions: Homo sapiens, 72 h, read-out: IC50 HCT116.CD133+
Source text: Supplementary Figure 30. Growth inhibitory effects in HCT116.CD133- and HCT116.CD133+ cancer cells.
Representative microscopy images of the HCT116.CD133- colonospheres in the absence (a) and presence of […]
salinomycin (b), Δ-[Fe 2L13]Cl4 (c), and Δ-[Fe 2L3a3]Cl4 (d), treated at their respective IC30 values for 6 days (scale […]
bar: 100 µm). Quantification of colonosphere formation from HCT116.CD133+ (e) and HCT116.CD133- (f,g) […]
under the same conditions. Data represent the mean value and SD from three independent experiments. p < 0.01, […]
10.5 Cytotoxicity in HCT116.CD133 + cells, SRB assay
Sorted HCT116.CD133+ cells were plated in 96w culture plates (TPP) (3000 cells per well) […]
and cultured for 3 days to allow cells to recover after sorting and to grow to the desired density.
Cells were then treated with different concentrations of the investigated compounds, […]
with Tris base (pH 10.5). The absorbance at 570 nm was measured using a SUNRISE Tecan […]
absorbance reader (Schoeller). The IC50 values were calculated from curves constructed by […]
plotting cell survival (%) versus drug concentration (μM). The reading values were converted […]
to the percentage of control (% cell survival). Cytotoxic effects were expressed as IC 50. […]
determined with SRB assay. a […]
aThe cells were treated for 72 h. The results are expressed as mean ± SD of three independent experiments. […]

HCT116p53+/+ = experiment: Cytotoxicity in HCT116 p53+/+ cells, SRB assay; assay type: cell-based; conditions: Homo sapiens, HCT-116, 72 h, read-out: IC50 HCT116p53+/+
Na+/K+ ATPase = experiment: Rubidium based assay for detection of Na+/K+ ATPase activity; design: species or system human; conditions: A2780 and HCT116 p53+/+ cell lines, 10 μM for 6 h, then RbCl (5.4 mM) 3 h, ICP-MS
Procedure: Cells were seeded in 6-well plates and incubated for 24 h at 37 °C in an atmosphere of 5% CO2. Cells were then incubated with drug for 6 h, and subsequently the medium was removed and cells were washed with PBS. Cells were then incubated with RbCl (5.4 mM) for 3 h, washed and counted. Rubidium content was determined by ICP-MS.
8.4 Real-time cell growth monitoring
Real-time Cell Analyzer (RTCA) (xCELLigence RTCA SP Instrument, ROCHE) was employed for growth monitoring of cells in the absence and the presence of tested compounds.
After the background of E-plates reading (100 µL medium), the cells were added (5x10^3 cells/well; 50 µL) and grown for 22-28 h. Tested compounds at varying concentrations were then added in 50 µL of media. The impedance was monitored for additional 80 h. An arbitrary unit CI (cell index) is a quantitative measure reflecting the status of the cells (number of attached cells and cell status such as morphology) in an electrode-containing well. Normalized CI at a given time point is given by dividing CI at the time point by CI at a reference time point.
8.5 Rubidium based assay for detection of Na +/K+ ATPase activity
The cells were seeded on 6-well plates (5× 10^5 cells/dish) and incubated overnight. The cells were treated with the investigated compounds for 6 h at 10 µM concentration. […] The cells were then harvested, washed trice with PBS, counted and pelleted. […]

CC[C@@H](C(=O)[C@@H](C)[C@@H](O)[C@H](C)[C@@H]1O[C@@H]([C@@H](CC)C(=O)O)CC[C@@H]1C)[C@H]1O[C@]2(C=C[C@@H](O)[C@]3(CC[C@@](C)([C@H]4CC[C@](O)(CC)[C@H](C)O4)O3)O2)[C@H](C)C[C@@H]1C [Salinomycin, salinomycin]
Diameter of colonospheres (HCT116 p53+/+ cells; control 96 ± 20): 76 ± 17 µm | Spheres/1000cells (HCT116 p53+/+ cells; control 224 ± 14): 142 ± 14 | inhibition of colonosphere formation from HCT116.CD133+ cells (HCT116.CD133+ cells): effectively inhibit | inhibition of colonosphere formation from HCT116.CD133- cells (HCT116.CD133- cells): do not significantly inhibit | IC50 [1]: 1120 ± 230 nM | IC50 (HCT116p53+/+): 1480 ± 210 nM

C[C@@H]1O[C@@H](O[C@H]2C[C@@H](O)[C@]3(CO)[C@H]4[C@H](O)C[C@]5(C)[C@@H](C6=CC(=O)OC6)CC[C@]5(O)[C@@H]4CC[C@]3(O)C2)[C@H](O)[C@H](O)[C@H]1O [ouabain]
inhibition of Rb+ uptake (Na+/K+ ATPase): 39–57%
